Values quoted from earlier work, collected in US9662359B2, “Compositions and methods for treating depression” (Alexander Vuckovic, M.D., LLC, priority 2010, dated 2017).

Conditions: oral SAMe

## S-Adenosyl methionine [SAMe]
  half-life: about 100 minutes
